Laboratory results reported in patent US7199121B2, “Protein tyrosine phosphatase inhibitor” (Institute of Molecular and Cell Biology, priority 2000, dated 2007).

Test system: Yop
Settings: for percentage activity of Yop relative to control: 1 μM compound, phosphatase 0.1 nM, pNPP, average of three enzyme preparations ± S.D.

Cn1nc2c(nc1=O)c(=O)n(C)c(=O)n2C [Compound 3, 2,8-dihydro-2,6,8-trimethyl-pyrimido[5,4-e]-1,2,4-triazine-3,5,7(6H)-trione]
inhibition of Yop (1 μM): ~90% | percentage activity of Yop relative to control: 10 ± 1.0% | PTP inhibition of Yop at neutral pH (neutral pH, results not shown): continues to behave as a PTP inhibitor

Cn1nc2c(nc1=O)n(C)c(=O)n2C [Compound 4, 2,5,7-trimethyl-2,7-dihydro-5H-imidazo[4,5-e]-1,2,4-triazine-3,6-dione]
percentage activity of Yop relative to control: 95 ± 4.0%

[Na+].[Na+].[Na+].[O]=[V]([O-])([O-])[O-] [Na3VO4, sodium orthovanadate, reference compound]
percentage activity of Yop relative to control: 14 ± 1.0%
